Here are results for three compounds from patent US20250230151A1, “COMPOUNDS FOR CANCERS DRIVEN BY BRAF MUTATION” (THE BOARD OF TRUSTEES OF THE UNIVERSITY OF ILLINOIS, priority 2021, published 2025).

Where two headings read alike, the source gives them in different places.

One series deals with B16F10 cells. Kind of series: 72-hour cell viability assay (Alamar Blue), B16F10. Type of series: cell-based. The method, then:
(§1) Cell Culture and reagents. All cell lines were grown in a 37° C., 5% CO2, humidified environment, in media containing 1% penicillin/streptomycin. Cell culture conditions are as follows: MDCK cells transfected with MDR1 (or ABCB1) were obtained from the Netherlands Cancer Institute (Amsterdam, The Netherlands) and maintained in DMEM with 10% fetal bovine serum (FBS, Gemini). Traditional cell lines A375, CHL-1, B16F10, and U118MG were grown in DMEM with 10% FBS, SK-MEL-28, U87 and T98G in EMEM with 10% FBS, AM-38 in EMEM with 20% HI-FBS (Gibco), HT29 in McCoy's 5A with 10% FBS, HCT116 in RPMI with 10% FBS. Compounds were dissolved in DMSO (1% final concentration, Sigma-Aldrich) for cell culture studies.
(§2) Cell viability assays. Cells were harvested, seeded in a 96-well plate and allowed to adhere overnight. Compound was added to each well in DMSO (1% final concentration). Cells were incubated for 72 hours before viability was assessed by the Alamar Blue Assay. Raptinal ([…]) was used as a dead control.

A further series relates to HCT116 cells. As to the kind of experiment: 72-hour cell viability assay (Alamar Blue), HCT116. In kind it is cell-based. The method, then: as §1, §2
For the next series, the target named is T1, P-gp (Homo sapiens, UniProt P08183).
T1 construct: host or cells: MDCK (MDR1-MDCK)
T1 sequence (P08183 whole entry): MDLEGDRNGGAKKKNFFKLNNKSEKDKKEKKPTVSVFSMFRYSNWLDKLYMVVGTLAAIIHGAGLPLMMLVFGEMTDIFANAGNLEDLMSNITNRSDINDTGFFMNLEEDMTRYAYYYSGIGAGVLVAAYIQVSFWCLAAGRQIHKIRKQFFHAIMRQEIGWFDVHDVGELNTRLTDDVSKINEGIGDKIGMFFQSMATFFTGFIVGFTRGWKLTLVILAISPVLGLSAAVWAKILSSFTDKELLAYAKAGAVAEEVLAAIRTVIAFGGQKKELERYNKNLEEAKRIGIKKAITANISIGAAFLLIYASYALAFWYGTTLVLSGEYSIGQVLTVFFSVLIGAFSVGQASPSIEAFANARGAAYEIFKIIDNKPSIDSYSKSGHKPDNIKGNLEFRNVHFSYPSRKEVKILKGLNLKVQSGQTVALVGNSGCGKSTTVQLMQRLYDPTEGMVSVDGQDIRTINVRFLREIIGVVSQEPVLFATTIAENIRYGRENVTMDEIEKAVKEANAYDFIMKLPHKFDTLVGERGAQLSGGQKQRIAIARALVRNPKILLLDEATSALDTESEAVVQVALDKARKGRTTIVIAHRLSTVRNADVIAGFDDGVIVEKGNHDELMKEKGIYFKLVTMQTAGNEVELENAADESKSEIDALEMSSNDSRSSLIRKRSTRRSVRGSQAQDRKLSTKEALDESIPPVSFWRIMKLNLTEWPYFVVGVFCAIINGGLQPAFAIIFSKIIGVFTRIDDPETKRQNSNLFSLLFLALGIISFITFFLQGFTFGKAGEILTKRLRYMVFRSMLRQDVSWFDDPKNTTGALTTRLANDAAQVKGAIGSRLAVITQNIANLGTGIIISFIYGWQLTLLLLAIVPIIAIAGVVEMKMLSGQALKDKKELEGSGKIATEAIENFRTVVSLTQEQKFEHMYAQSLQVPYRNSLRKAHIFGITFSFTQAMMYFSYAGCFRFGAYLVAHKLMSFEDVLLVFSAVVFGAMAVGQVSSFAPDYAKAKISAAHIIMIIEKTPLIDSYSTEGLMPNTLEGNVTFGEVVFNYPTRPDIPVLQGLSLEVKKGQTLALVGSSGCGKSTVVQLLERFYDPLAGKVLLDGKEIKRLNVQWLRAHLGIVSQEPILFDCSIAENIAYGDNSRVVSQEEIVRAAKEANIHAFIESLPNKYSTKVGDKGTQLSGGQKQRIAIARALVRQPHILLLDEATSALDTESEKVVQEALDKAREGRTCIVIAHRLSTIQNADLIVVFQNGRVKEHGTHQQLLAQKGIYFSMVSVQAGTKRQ
As to the kind of experiment: MDR1-MDCK P-gp transwell bidirectional transport assay. In kind it is in vitro ADME. The conditions noted are these: for Papp A→B at 90 min, 10 µM / Papp B→A at 90 min, 10 µM / efflux ratio at 90 min, 10 µM / Papp at 90 min, 10 µM: dog; for Papp A→B at 90 min, 10 µM / Papp B→A at 90 min, 10 µM / efflux ratio at 90 min, 10 µM: MDCK-MDR1, MDR1-MDCK; for efflux ratio at 90 min, 10 µM: read-out: ER (efflux ratio) (converted); for Papp at 90 min, 10 µM: MDCK-MDR1, range of Papp A-B to B-A, read-out: cell culture permeabilities; for ER (efflux ratio) / Papp A-B / Papp B-A: MDR1-MDCK; for Papp A→B at 90 min, 10 µM / Papp B→A at 90 min, 10 µM / efflux ratio at 90 min, 10 µM / ER (efflux ratio) / Papp A-B / Papp B-A: 10 μM, 90 min. Summed up:
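MDR1-MDCK monolayers grown 80-96 h on transwell filters; compounds at 10 μM final (1% DMSO) incubated 90 min at 37 °C with shaking, in apical-to-basolateral and basolateral-to-apical directions. Donor and receiver samples quantified by LC-MS/MS; monolayer integrity checked with Lucifer Yellow. Permeability and efflux ratio calculated.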

Another series has as its system U87 cells. Kind of series: 72-hour cell viability assay (Alamar Blue), U87. Type of series: cell-based. To be noted: WT BRAF. As for the experimental part:
as §1, §2
A general note: The colour change of resazurin is a common sign of viable cells or microbes.

The test system of another series is CHL-1 cells. As to the kind of experiment: 72-hour cell viability assay (Alamar Blue), CHL-1. In kind it is cell-based. The method, then:
as §1, §2

A further series deals with HT29 cells. As to the kind of experiment: 72-hour cell viability assay (Alamar Blue), HT29. Type of series: cell-based. The conditions noted are these: colon. As for the experimental part:
as §1, §2

For the next series, the system named is A375 cells. Kind of series: 72-hour cell viability assay (Alamar Blue), A375. Type of series: cell-based, human. The conditions noted are these: for IC50: 72-hour incubation, Alamar Blue, V600E BRAF. Summed up: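 Overnight-adhered cells received compound in DMSO at 1% final concentration and were incubated 72 hours; Alamar Blue then gave the viability readout, with 50 µM Raptinal defining full kill.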

In series [1] the test system is A375 melanoma cells intracranially implanted. As to the kind of experiment: A375 intracranial mouse model of melanoma metastasis. In kind it is in vivo. The conditions noted are these: 50 mg/kg IP once a day, two 5-day cycles, 10 doses.
Description: Number of mice per cohort n>3. […] (C) Evaluation of everafenib in an intracranial mouse model. 50,000 A375 melanoma cells were intracranially implanted into 7-week old female athymic nude mice. Five days after inoculation, mice were treated with the vehicle or 50 mg/kg of dabrafenib or everafenib intraperitoneal (IP) once a day for 5 days. After 2 days off, another five daily doses were administered, a total of 10 treatments in the model. Cells were tested to be free of pathogens prior to inoculation. […] Number of mice per cohort=6. Statistical significance was determined by a two-tailed log-rank (Mantel-Cox) test. **P<0.01 ***P<0.001 ****P<0.0001.
Such a model has been developed using intracranial implantation of the A375 melanoma cell line, and thus, this macro-metastatic model via injection of A375 cells to the mouse forebrain was used to assess everafenib and dabrafenib head-to-head. In the experiment, mice were intracranially implanted with A375 cells and then 5 days later were treated with 50 mg/kg of dabrafenib or everafenib (two cycles of once-per-day for 5 days via IP injection, a total of 10 doses).
In vivo efficacy model. […] Human melanoma A375 cells were intracranially implanted in 7-week-old female athymic nude mice (50,000 cells/mouse). Cells were tested to be free of pathogens prior to inoculation. […]
The nature of series [2]: Blood-brain barrier penetrance, brain and serum levels after single IV injection. Type of series: in vivo. The conditions noted are these: CD-1, mouse, 60 min after single 25 mg/kg IV injection, read-out: brain-to-serum ratio. As for the experimental part:
Blood-brain barrier penetrance P-gp in vivo assays. All experimental procedures were reviewed and approved by the University of Illinois Institutional Animal Care and Use Committee (Protocol number: 19191). CD-1 mice were purchased from Charles River and acclimated for 4-7 days before use. Mice were administered elacridar or its vehicle at 2.5 mg/kg via lateral tail vein injection. Thirty-minutes post injection, mice were then treated with compounds at 25 mg/kg intravenously now in the other tail vein. At each time point, mice were sacrificed and blood was collected by lacerating the right auricle with iris scissors. An 18-gauge angiocatheter was inserted through the left ventricle, and all residual circulatory volume was removed by perfusing 0.9% saline solution via an analog peristaltic pump. Brains were harvested from the cranial vault and flash frozen. Blood samples were centrifuged at 13,000 ref for 10 minutes and the supernatant serum was stored at −80° C. until analysis. Brain samples were homogenized in ice-cold methanol and centrifuged first at 2000 ref for three minutes and then 13,000 ref for ten minutes and supernatant and tissue debris were separated and stored at −80° C. The resultant supernatant and serum were analyzed by LC-MS/MS to determine compound concentrations. […] All compounds were administered at 5 mL/kg.

Where [3] appears, read: Mus musculus, B16-F10, WT BRAF, melanoma, read-out: B16F10 (WT) IC50.
[4] abbreviates: Mus musculus, B16-F10, WT BRAF, read-out: B16F10 IC50.
Where [5] appears, read: Homo sapiens, HCT-116, WT BRAF, colon, read-out: HCT116 (WT) IC50.
Setting [6] is: Homo sapiens, HCT-116, WT BRAF, read-out: HCT116 IC50.
Where [7] appears, read: Homo sapiens, U-87 MG, read-out: U87 IC50.
Setting [8] is: Homo sapiens, glioma, read-out: U87 (WT) IC50.
Where [9] appears, read: Homo sapiens, CHL-1, WT BRAF, melanoma, read-out: CHL-1 (WT) IC50.
Where [10] appears, read: Homo sapiens, CHL-1, WT BRAF, read-out: CHL-1 IC50.
Setting [11] is: Homo sapiens, HT-29, V600E BRAF.

For `CCCS(=O)(=O)Nc1cc(Cl)cc(-c2nc(C(C)(C)C)sc2-c2ccnc(N)n2)c1F` [6-261, N-(3-(5-(2-aminopyrimidin-4-yl)-2-(tert-butyl)thiazol-4-yl)-5-chloro-2-fluorophenyl)propane-1-sulfonamide], the concentration for half-maximal inhibition (IC50) with B16F10 cells (setting [3]), in the series on B16F10 cells (setting [4]), with HCT116 cells (setting [5]), with HCT116 cells (setting [6]), in the series with U87 cells (setting [7]) and in the series on U87 cells (setting [8]) was > 1000 nM each time. The IC50 – broadly, the concentration at which inhibition is half-maximal – in the series on CHL-1 cells (setting [9]) was > 1000 nM; with CHL-1 cells (setting [10]), > 1000 nM; with HT29 cells (setting [11]), 1.67 ± 0.36 nM; in the series on A375 cells (Homo sapiens, A-375, 72 h), 2.8 ± 0.53 nM. Also, the Papp A→B (commonly how fast a substance crosses the layer from the apical side) at 90 min, 10 µM on P-gp turned out to be 4.92 ± 0.806 ×10⁻⁶ cm/s. Moreover, on P-gp, the apparent permeability from basolateral to apical (Papp B→A) (in general, how fast a substance crosses the layer from the basolateral side) at 90 min, 10 µM was determined as 6.42 ± 2.45 ×10⁻⁶ cm/s. For the same compound, the efflux ratio at 90 min, 10 µM at P-gp is 1.4. For the same compound, the Papp at 90 min, 10 µM on P-gp lay within 4.9 to 6.4 ×10⁻⁶ cm/s. In [1], this compound returned a median survival of 50.5 days. Further, the Kp at 60 min in series [2] was found to be 0.286.

Regarding `CCCS(=O)(=O)Nc1cc(Cl)cc(-c2nc(C(C)(C)C)sc2-c2ccnc(NCCCCC(=O)O)n2)c1F` [6-263, 5-((4-(2-(tert-butyl)-4-(5-chloro-2-fluoro-3-(propylsulfonamido)phenyl)thiazol-5-yl)pyrimidin-2-yl)amino)pentanoic acid], the IC50 with B16F10 cells (setting [3]) was > 10000 nM; in the series on B16F10 cells (setting [4]), > 10000 nM; in the series with HCT116 cells (setting [5]) it was 2100 ± 456 nM; in the series with HCT116 cells (setting [6]), 2100 ± 456 nM; in the series on U87 cells (setting [7]) it was > 10000 nM; in the series on U87 cells (setting [8]) it was > 10000 nM. For the same compound, the IC50 in the series with CHL-1 cells (setting [9]) was > 10000 nM; in the series with CHL-1 cells (setting [10]), > 10000 nM; with HT29 cells (setting [11]), 21.4 ± 4.21 nM; in the series on A375 cells (Homo sapiens, A-375, 72 h) it was 27.3 ± 3.01 nM. The Papp A→B at 90 min, 10 µM on P-gp worked out at 2.15 ± 0.07 ×10⁻⁶ cm/s. This compound also returned a Papp B→A at 90 min, 10 µM at P-gp of 2.49 ± 0.435 ×10⁻⁶ cm/s. Also, the efflux ratio at 90 min, 10 µM at P-gp was 1.17. On P-gp, the Papp at 90 min, 10 µM was in the range of 2.2 to 2.5 ×10⁻⁶ cm/s. For the same compound, the Kp at 60 min in series [2] was in the range of 0.0014 to 0.0069.

Consider `CC(C)(C)c1nc(-c2cccc(NS(=O)(=O)c3c(F)cccc3F)c2F)c(-c2ccnc(N)n2)s1` [Dabrafenib, reference compound], for which the 50% inhibitory concentration (IC50) is > 1000 nM in the series on B16F10 cells (WT BRAF, read-out: B16F10 IC50); > 1000 nM in the series on HCT116 cells (WT BRAF, read-out: HCT116 IC50); > 1000 nM in the series with U87 cells (read-out: U87 IC50); > 1000 nM with CHL-1 cells (WT BRAF, read-out: CHL-1 IC50); 4.74 ± 0.84 nM with HT29 cells (V600E BRAF); 7.46 ± 1.1 nM with A375 cells. The same compound came in with a half-maximal inhibitory concentration (IC50) with A375 cells (listed as 6-74) of 5.38 ± 0.38 nM. Also, the “ER (efflux ratio)” value on P-gp turned out to be 17.94 ± 6.97; on P-gp (listed as dabrafenib), 17.9. Besides, the “Papp A-B” value at P-gp worked out at 1.26 ± 0.672 ×10⁻⁶ cm/s; at P-gp (listed as 6-74), 1.257 ± 0.672 ×10⁻⁶ cm/s. The “Papp B-A” value at P-gp stood at 13.2 ± 1.63 ×10⁻⁶ cm/s; on P-gp (listed as 6-74), 13.192 ± 1.632 ×10⁻⁶ cm/s. For the same compound, the “% Emax” value in the series with A375 cells (A375, 72-hour incubation) is listed as 65%. In [1], this compound came in with a median survival of 39 days.
